Values belong to the molecule of their own block, whether it stands above or below them.
Legend:
[1] = Aqueous solubility of the quinolone and its crystal forms; type: physicochemical; settings: for solubility of crystal form: depending upon the crystal form
From the text: The compounds disclosed in U.S. Pat. No. 5,563,155, ('155) are incorporated by reference here to fully disclose and enable this invention. The following compounds of the '155 patent are pointed out and particularly incorporated here. […] More particularly disclosed by incorporation by reference are those compounds of '155, in claim 1, where R2 is H and where R or R' is H. The quinolone where R2 is H and where R or R' is H can be combined with Mg2+ ions to produce a soluble complex having reduced injection site irritation. More preferred are the compounds of '155, in claim 1, where R2 is H and where R or R' is H, and where R3 is H and X is C--O--CH3. The esters of these compounds are also disclosed herein, the carboxy esters of 1-8 carbon groups are disclosed here, including all isomeric combinations (CH3, C2 H5, C3 H7, C4 H9, C5 H11, C6 H13, C7 H15, C8 H17 -- both straight and branched chains) and especially preferred are the carboxy esters of 1-4 carbon groups such as in U.S. Pat. No. 5,563,155, claim 1, where R2 is an alkyl of 1-4 carbon atoms or a cation. Even more preferred are the compounds of claim 2, most particularly the compound of claim 8 or 3R,1S-1-cyclopropyl-7-(3-(1-(methylamino)ethyl)-1-pyrrolidinyl)-6-fluoro-1,4-dihydro-8-methoxy-4-oxo-3-quinolinecarboxylic acid. […] Also, particular attention is directed to the descriptions in the specification of the '155 patent that correspond or are relevant to those claims and compounds described here.
The quinolones mentioned above can exist in different forms, the different forms having different solubilities. […] Even though it is the less soluble crystal form, Form III is very suitable as the quinolone that may be combined with Mg2+ in this invention. See, WO96/16055, incorporated by reference.
The compounds that may be made into solutions of this type are those compounds disclosed in Formula 1 and in U.S. Pat. No. 5,563,155, incorporated herein by reference and particularly 3R,1S-1-cyclopropyl-7-(3-(1-(methylamino)ethyl)-1-pyrrolidinyl)-6-fluoro-1,4-dihydro-8-methoxy-4-oxo-3-quinolinecarboxylic acid. […]

[2] = Serum depletion profile of 14C-quinolone with and without magnesium; type: in vivo, Holstein calves; settings: single subcutaneous, approximately 10 mg/kg
Method: (§1) Experiment 7. The determination of preliminary residue depletion profile in calves following subcutaneous administration of 14C-quinolone with and without magnesium.
(§2) Formulations: Radiolabeled quinolone was combined with unlabeled quinolone to yield solutions containing quinolone at 50 mg/mL with a specific activity of 2.25 uCi/mg. Solution 1: 4.92 g of unlabeled quinolone and 11.26 mCi 14C-quinolone were dissolved in 0.16 M HCl, the solution was titrated to pH 4-5 with 1 M NaOH and diluted with deionized water to a final volume of 100 mL. Solution 2: 4.92 g of unlabeled quinolone and 11.26 mCi 14C-quinolone were dissolved in 0.24 M MgCl2 --6H2 O and diluted to 100 mL with deionized water.
(§3) Treatment Groups: Ten (male and female) Holstein calves approximately 50-85 kg were used. Each animal was injected with a single subcutaneous injection (approximately 0.2 mL dose solution/kg body weight). The dose level was approximately 10 mg/kg (22.5 uCi/kg) body weight. Whole blood samples (approximately 50 mL) were collected from each animal at 0.5, 1, 1.5, 2, 2.5, 3, 6, 12, 24, and 48 h after dosing or until euthanasia. Following euthanasia, fat, muscle, lung, kidney, liver and injection site tissue samples (approximately 500 g) were collected. Blood and tissue samples were combusted and drug residue determined by liquid scintillation counting.

[3] = Total 14C-quinolone tissue residue depletion; type: in vivo, Holstein calves; settings: for Total 14C-quinolone residues at injection site / Total 14C-quinolone residues in fat / Total 14C-quinolone residues in kidneys / Total 14C-quinolone residues in liver / Total 14C-quinolone residues in lungs / Total 14C-quinolone residues in muscle: 10 mg/kg
Method: as §1, §2, §3

[4] = Injection site reaction after subcutaneous injection in animals (general statement); type: in vivo; settings: without Mg2+
From the text: Unfortunately these compounds also produce a severe adverse reaction at the injection site when injected subcutaneously in animals.

- solubility of crystal form [1]: about 10.8 mg/ml
Compound: CN[C@@H](C)[C@@H]1CCN(c2c(F)cc3c(=O)c(C(=O)O)cn(C4CC4)c3c2OC)C1 [Form 1, 3R,1S-1-cyclopropyl-7-(3-(1-(methylamino)ethyl)-1-pyrrolidinyl)-6-fluoro-1,4-dihydro-8-methoxy-4-oxo-3-quinolinecarboxylic acid]

- estimated intrinsic solubility ([1]; 25° C.): about 2.2 mg/ml
- serum concentration at 1 hour ([2]; 1 hour): 30400 ng/mL
- serum concentration after 48 hours ([2]; 48 hours): 1000 ng/mL
- Total 14C-quinolone residues at injection site ([3]; 3 hr): 10,482 μg/g
- Total 14C-quinolone residues in fat ([3]; 3 hr): 45.4 µg/g
- Total 14C-quinolone residues in kidneys ([3]; 3 hr): 353.2 µg/g
- Total 14C-quinolone residues in liver ([3]; 3 hr): 215.5 µg/g
- Total 14C-quinolone residues in lungs ([3]; 3 hr): 146.8 µg/g
- Total 14C-quinolone residues in muscle ([3]; 3 hr): 50.1 µg/g
- Total 14C-quinolone residues at injection site ([3]; 6 hr): 12,382 μg/g
- Total 14C-quinolone residues in fat ([3]; 6 hr): 16.8 µg/g
- Total 14C-quinolone residues in kidneys ([3]; 6 hr): 234.1 µg/g
- Total 14C-quinolone residues in liver ([3]; 6 hr): 147.2 µg/g
- Total 14C-quinolone residues in lungs ([3]; 6 hr): 96.6 µg/g
- Total 14C-quinolone residues in muscle ([3]; 6 hr): 38.4 µg/g
- Total 14C-quinolone residues at injection site ([3]; 12 hr): 1,737 μg/g
- Total 14C-quinolone residues in fat ([3]; 12 hr): 7.8 µg/g
- Total 14C-quinolone residues in kidneys ([3]; 12 hr): 121.3 µg/g
- Total 14C-quinolone residues in liver ([3]; 12 hr): 110.9 µg/g
- Total 14C-quinolone residues in lungs ([3]; 12 hr): 53.1 µg/g
- Total 14C-quinolone residues in muscle ([3]; 12 hr): 24.3 µg/g
- Total 14C-quinolone residues at injection site ([3]; 24 hr): 932.5 µg/g
- Total 14C-quinolone residues in fat ([3]; 24 hr): 13.9 µg/g
- Total 14C-quinolone residues in kidneys ([3]; 24 hr): 90.3 µg/g
- Total 14C-quinolone residues in liver ([3]; 24 hr): 59.5 µg/g
- Total 14C-quinolone residues in lungs ([3]; 24 hr): 27.6 µg/g
- Total 14C-quinolone residues in muscle ([3]; 24 hr): 9.4 µg/g
- Total 14C-quinolone residues at injection site ([3]; 48 hr): 225.7 µg/g
- Total 14C-quinolone residues in fat ([3]; 48 hr): 1.7 µg/g
- Total 14C-quinolone residues in kidneys ([3]; 48 hr): 15.0 µg/g
- Total 14C-quinolone residues in liver ([3]; 48 hr): 13.4 µg/g
- Total 14C-quinolone residues in lungs ([3]; 48 hr): 4.8 µg/g
- Total 14C-quinolone residues in muscle ([3]; 48 hr): 1.4 µg/g
- injection site concentration of QFB ([3]; single subcutaneous, approximately 10 mg/kg): 10,480 ug/g
Compound: CN[C@@H](C)[C@@H]1CCN(c2c(F)cc3c(=O)c(C(=O)O)cn(C4CC4)c3c2OC)C1 [QFB, [S-(R*,S*)]-1-Cyclopropyl-6-fluoro-1,4-dihydro-8-methoxy-7-[3-[1-(methylamino)ethyl]-1-pyrrolidinyl]-4-oxo-3-quinolinecarboxylic acid]
- adverse reaction at injection site [4]: dramatic swelling, discoloration, internal and external lesions and even necrosis

- solubility of crystal form [1]: about 2.2 mg/ml
Compound: CN[C@@H](C)[C@@H]1CCN(c2c(F)cc3c(=O)c(C(=O)O)cn(C4CC4)c3c2OC)C1 [Form 3, 3R,1S-1-cyclopropyl-7-(3-(1-(methylamino)ethyl)-1-pyrrolidinyl)-6-fluoro-1,4-dihydro-8-methoxy-4-oxo-3-quinolinecarboxylic acid]

Source: patent publication US6288080A, “Magnesium quinolone antibiotics” (priority 1998, dated 2001)
